Data as given in patent US12707888B2, “Asymmetric donor-acceptor molecular dyes” (THE UNIVERSITY OF NORTH CAROLINA AT CHARLOTTE, priority 2019, dated 2026).

Key:
J774.A1 cells = assay: Cell labeled spectral measurements; assay type: cell-based, Mouse
Method: FIG. 11C are normalized excitation/emission spectra of 1 μM Bu2N-TTz-Py in PBS buffer with 0.1% TritonX-100 before and after loading into ~0.5×10^5 J774.A1 cells. Excitation spectra (dashed line) were collected at 520 nm and emission spectra (solid line) were collected with 440 nm excitation.
Cell labeled spectral measurements. Excitation and emission spectra were collected by labeling the alveolar macrophage cell line J774.A1 (~0.5×10^5 cells) with 1 μM Bu2N-TTz-Py in phosphate buffered saline (PBS) buffer and 0.1% TritonX-100. Cells were incubated with dye for 10 min at RT, washed thrice with PBS, and dispersed in a cuvette for fluorescent spectral measurements (Fluoromax-4, Horiba Scientific, Edison, NJ, USA). Excitation spectra were collected at 520 nm emission. Emission spectra were collected by exciting at 440 nm. Electrophysiology. Whole cell voltage clamping measurements of 500 nM Bu2N-TTz-Py labeled HEK 293T cells were performed with Axopatch 200A amplifier (Molecular Devices), digitized using an NI-6251 DAQ (National Instruments), and controlled using WinWCP software (Strathclyde Electrophysiology Software). Patch pipettes were pulled using a Sutter P-97 Micropipette puller. Patch pipettes with resistances between 5-10 MOhm were used in voltage clamping experiments. The patch pipette was positioned using an MP325 motorized manipulator (Sutter). Metamorph premier Ver. 7.8.12.0 was linked to an NI-6501 DAQ to enable voltage triggered image acquisition. Extracellular solution composition was 145 mM NaCl, 20 mM glucose, 10 mM HEPES, pH 7.4, 3 mM KCl, 2 mM CaCl2), 1 mM MgCl2 (310 mOsm); and the intracellular solution composition was 115 mM potassium gluconate, 10 mM EGTA tetrapotassium salt, 10 mM HEPES, pH 7.2, 5 mM NaCl, 10 mM KCl, 2 mM ATP disodium salt (290 mOsm).

HEK 293T cells [1] = assay: Whole-cell patch clamp voltage sensitivity; assay type: cell-based, Human; details: 500 nM dye, cells held at −60 mV, 10 mV steps
Method: Having established its environmental sensitivity and proclivity for membrane localization, it was hypothesized that Bu2N-TTz-Py could orient itself favorably within cell membranes and sense voltage differentials across the membrane. To test the membrane voltage sensitivity of Bu2N-TTz-Py, whole-cell patch clamp electrophysiology was performed on HEK 293T cells labeled with 500 nM Bu2N-TTz-Py. […] Tests concluded that Bu2N-TTz-Py has a voltage sensitivity of approximately 10% ΔF/F per 100 mV. For context, early generation VSDs, such as RH-421, ANNINE-6, and VF2.1.Cl, display maximum voltage sensitivities of 10%-25% ΔF/F per 100 mV.
Cell labeled spectral measurements. Excitation and emission spectra were collected by labeling the alveolar macrophage cell line J774.A1 (~0.5×10^5 cells) with 1 μM Bu2N-TTz-Py in phosphate buffered saline (PBS) buffer and 0.1% TritonX-100. Cells were incubated with dye for 10 min at RT, washed thrice with PBS, and dispersed in a cuvette for fluorescent spectral measurements (Fluoromax-4, Horiba Scientific, Edison, NJ, USA). Excitation spectra were collected at 520 nm emission. Emission spectra were collected by exciting at 440 nm. Electrophysiology. […]

HEK 293T cells [2] = assay: Photostability under continuous illumination in cells; assay type: cell-based, Human
Method: FIG. 12B details photostability of Bu2N-TTz-Py and VF2.1.Cl in HEK 293T cells (illuminated using λ=440 nm at […]) and their representative pseudo-gray scale images under continuous illumination at wavelength of maximum excitation. Error bars a/b represent the standard error of mean (S.E.M.) for 3 independent experiments, n=12 total cells. Scale bar=10 μm.
Microscopy. Imaging was carried out on an IX83 inverted microscope (Olympus Corporation of the Americas, Center Valley, PA, USA) using 100×, 1.4 NA, DIC oil immersion objective (PLAPON, Olympus) and an Evolve Delta 512 EMCCD camera (Photometrics, USA). Filter wheel, shutter, and CCD camera were controlled using Metamorph premier Ver 7.8.12.0 (Molecular Devices, LLC, USA). For photostability studies, HEK 293T cells were labeled with 500 nM Bu2N-TTz-Py and illuminated continuously with ~5 W cm^−2 power light source, periodically acquiring images at 1 min interval. Bu2N-TTz-Py channel images were obtained using 480/20 bandpass excitation filter, 575/40 bandpass emission filter and 89016 dichroic. VF2.1.Cl channel images were obtained using 500/20 bandpass excitation filter, 535/40 bandpass emission filter and 69002 dichroic. For CellMask™ red, images were obtained using the 640/30 bandpass excitation filter, 705/72 bandpass emission filter and 89016 dichroic.

HEK 293T cells [3] = assay: Annexin V-Cy5 cytotoxicity; assay type: cell-based, Human; details: 500 nM dye for 15 min
Method: FIG. 12C provides Annexin V-Cy5 staining of HEK 293T cells incubated with DMSO (Veh.), VF2.1.Cl, and Bu2N-TTz-Py. Apoptosis for control (incubated cells 65° C., 10 min). Percentages of cytotoxicity were calculated as number of 100×Cy5 positive cells per number of nuclei stained. Error bars represent S.E.M. of three independent experiments, n=250 cells. Scale bars=10 μm.
Lastly, the cellular toxicities of Bu2N-TTz-Py and VF2.1.Cl were characterized using Annexin V-Cy5 staining of phosphatidylserine. HEK 293T cells were labelled with Bu2N-TTz-Py or VF2.1.Cl for 15 min, incubated with Annexin V-Cy5 for 20 min in the dark, washed, and fixed with 4% paraformaldehyde before imaging. As a positive control, apoptosis was induced via high-temperature incubation (65° C., 10 min).
Cellular localization: Time-lapse imaging was performed to probe the membrane localization of Bu2N-TTz-Py at longer time scale. […] Intensity values at plasma membrane (IPM) were calculated by drawing regions of interest (ROI) around the whole cell and subtracting intracellular intensity (IIM, ROI drawn within the cell) for Bu2N-TTz-Py and CellMask images, respectively. […] Cytotoxicity percentage is calculated as number of Annexin V-Cy5 positive cells to total number of nuclear stained cells. Number of cells quantification were performed using Analyze particle function of ImageJ program.

[4] = Solubility in aqueous environments; assay type: physicochemical

peak emission wavelength (J774.A1 cells; localized to cell membranes, 440 nm excitation): 483 nm | peak excitation wavelength (J774.A1 cells; localized to cell membranes, collected at 520 nm emission): 423 nm | wavelength of peak emission (J774.A1 cells; solution of PBS with 0.1% Triton-X100, before loading into cells): 518 nm | molar absorptivity ε (HEK 293T cells [2]; @ 440 nm LED): 15,000-20,000 cm^−1 M^−1 | decay of fluorescence intensity (HEK 293T cells [2]; in the same amount of time (approx. 7.5 minutes), I=5 W cm^−2, 440 nm LED): less than 10% | solubility in aqueous environments [4]: poor solubility
Compound: CCCCN(CCCC)c1ccc(-c2nc3sc(-c4ccncc4)nc3s2)cc1 [Bu2N-TTz-Py, 2-(N,N-dibutyl-4-aminophenyl)-5-(4-pyridyl) thiazolo[5,4-d]thiazole]
voltage sensitivity (HEK 293T cells [1]): approximately 10 % ΔF/F per 100 mV | cytotoxicity (Annexin V-Cy5 staining) (HEK 293T cells [3]): insignificant cytotoxicity
